Source: patent US10538580B2, “Anti-equol antibody composition and use therefor” (HEALTHCARE SYSTEMS CO., LTD., priority 2016, dated 2020)

Tested on: anti-equol monoclonal antibody composition
Test: Evaluating cross-reactivity of anti-equol monoclonal antibody composition
Assay type: binding, mouse
Details: for Cross-reactivity with S-equol (%): S-equol as 100%; for S-equol concentration calculated from the calibration curve: reacted with the antibody, read from S-equol calibration curve
Experimental: The cross-reactivity rate can be obtained as follows for example. First, a calibration curve is prepared using S-equol. Compounds including S-equol are prepared with concentrations of 1 μM and 10 μM, and reacted with the antibody at each concentration, and the S-equol concentration is calculated from the calibration curve. For example, if 10 μM of daidzein is added and detected at a concentration of 10 μM based on the calibration curve the cross-reactivity is given as 100%, while if it is detected at a concentration of 1 μM the cross-reactivity is given as 10%, and if it is detected at a concentration of 0.1 μM the cross-reactivity is given as 1%. To investigate the cross-reactivity of the resulting antibody composition, reactivity to 9 kinds of compounds including S-equol (S-equol, daidzein, genistein, glycitein, ellagic acid dihydrate, catechin monohydrate, gallic acid, apigenin and DMA) was investigated. First, a calibration curve was prepared using S-equol. The 9 compounds including S-equol were prepared at concentrations of 1 μM and 10 μM, and reacted with the antibody at each concentration, and cross-reactivity was calculated from the calibration curve.

Row | Molecule | Cross-reactivity with S-equol (%) (compound at 1 μM) | Cross-reactivity with S-equol (%) (compound at 10 μM) | S-equol concentration calculated from the calibration curve (compound prepared at 1 μM) | S-equol concentration calculated from the calibration curve (compound prepared at 10 μM)
1 | (+)-Catechin hydrate | 0.00 | 0.09 | 0.00 | 0.01
2 | O=c1c(-c2ccc(O)cc2)coc2cc(O)cc(O)c12 [Genistein, genistein] | 0.00 | 0.00 | 0.00 | 0.00
3 | COc1cc2c(=O)c(-c3ccc(O)cc3)coc2cc1O [Glycitein, glycitein] | 0.00 | 0.00 | 0.00 | 0.00
4 | O=c1cc(-c2ccc(O)cc2)oc2cc(O)cc(O)c12 [Apigenin, apigenin] | 0.00 | 0.00 | 0.00 | 0.00
5 | Oc1ccc([C@@H]2COc3cc(O)ccc3C2)cc1 [R-Equol, R-equol] | 89.55 | 109.59 | 1.20 | 11.88
6 | Oc1ccc([C@H]2COc3cc(O)ccc3C2)cc1 [S-Equol, S-equol] | 100.00 | 100.00 | 1.34 | 10.84
7 | O=c1oc2c(O)c(O)cc3c(=O)oc4c(O)c(O)cc1c4c23 [Ellagic acid dihydrate, ellagic acid dihydrate] | 0.00 | 0.00 | 0.00 | 0.00
8 | O=C(O)c1cc(O)c(O)c(O)c1 [Gallic acid, gallic acid] | 0.00 | 0.74 | 0.00 | 0.08
9 | O=c1c(-c2ccc(O)cc2)coc2cc(O)ccc12 [Daidzein, daidzein] | 0.00 | 0.00 | 0.00 | 0.00
10 | C[C@@H](C(=O)c1ccc(O)cc1O)c1ccc(O)cc1 [R—O-DMA, R—O-desmethylangolensin] | 0.00 | 0.00 | 0.00 | 0.00
